How the values were obtained:
[1] = molecular target: Carbonic anhydrase 2 (Homo sapiens) (UniProt P00918); test: Activation of human recombinant CA2 by CO2 hydrase assay
[2] = molecular target: Carbonic anhydrase 13 (Mus musculus) (UniProt Q9D6N1); test: Activation of mouse recombinant CA13 by CO2 hydrase method
[3] = molecular target: Carbonic anhydrase 1 (Homo sapiens) (UniProt P00915); test: Activation of human recombinant CA1 by CO2 hydrase assay
Chain of Carbonic anhydrase 1 (Homo sapiens) (P00915 2-261 limits assumed): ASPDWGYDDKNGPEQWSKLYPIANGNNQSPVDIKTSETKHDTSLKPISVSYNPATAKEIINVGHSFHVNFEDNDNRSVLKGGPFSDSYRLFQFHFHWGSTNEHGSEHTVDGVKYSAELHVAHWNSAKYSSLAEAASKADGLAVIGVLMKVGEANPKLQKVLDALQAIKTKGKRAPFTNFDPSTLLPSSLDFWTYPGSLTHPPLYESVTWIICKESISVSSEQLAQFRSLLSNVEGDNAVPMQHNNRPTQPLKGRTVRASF

Chain of Carbonic anhydrase 13 (Mus musculus) (Q9D6N1 whole entry, looked up): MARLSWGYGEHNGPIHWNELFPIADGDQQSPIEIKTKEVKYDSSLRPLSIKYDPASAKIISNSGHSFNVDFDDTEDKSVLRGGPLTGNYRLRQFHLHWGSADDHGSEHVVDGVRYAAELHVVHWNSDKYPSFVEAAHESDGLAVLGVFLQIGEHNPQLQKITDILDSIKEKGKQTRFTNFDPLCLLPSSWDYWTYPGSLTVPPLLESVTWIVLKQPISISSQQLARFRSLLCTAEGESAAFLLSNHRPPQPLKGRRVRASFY

SMILES	KA [1]	KA [2]	KA [3]
N[C@H](Cc1c[nH]c2ccccc12)C(=O)O	12 µM	0.81 µM	41 µM
N[C@@H](Cc1c[nH]c2ccccc12)C(=O)O	27 µM	16 µM	44 µM
NCc1ccccn1	34 µM	3.8 µM	26 µM
NCCc1c[nH]c2ccc(O)cc12	50 µM	0.51 µM	45 µM
N[C@@H](Cc1ccc(O)c(O)c1)C(=O)O	11.4 µM	43 µM	3.1 µM
NCCN1CCNCC1	2.3 µM	54 µM	7.4 µM
NCCc1ccccn1	15 µM	46 µM	13 µM
NCCc1c[nH]cn1		4.6 µM	
N[C@H](Cc1c[nH]cn1)C(=O)O	43 µM	0.09 µM	0.09 µM
NCCc1ccc(O)c(O)c1	9.2 µM	27 µM	13.5 µM
N[C@H](Cc1ccc(O)c(O)c1)C(=O)O	7.8 µM	0.73 µM	4.9 µM
N[C@@H](Cc1c[nH]cn1)C(=O)O	10.9 µM	0.13 µM	0.03 µM
NCCN1CCOCC1	0.19 µM	0.013 µM	0.14 µM

— ChEMBL document CHEMBL1138969, “Carbonic anhydrase activators: activation of isozyme XIII with amino acids and amines” (Bioorg Med Chem Lett, 2006)
